In patent US9955691B2, “Macrocyclic picolinamides as fungicides” (DOW AGROSCIENCES LLC, priority 2014, dated 2018):
Like-named read-outs stand apart in the source and are kept apart here.

Columns and labels:
Assay type in all cases: in vivo
[1] = system: Mycosphaerella graminicola; Anamorph: Septoria tritici; test: Fungicidal activity: Leaf Blotch of Wheat (SEPTTR); details: Zymoseptoria tritici, wheat leaf blotch; for pest or weed control at 100 µg/mL: High Volume (100 ppm); for pest or weed control at 121.5 g/ha: Low Volume (121.5 g/H)
Method in brief: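 Compounds were dissolved in acetone, diluted with nine volumes of water containing 110 ppm Triton X-100, and sprayed to run-off on first-leaf Yuma wheat seedlings inoculated with Septoria tritici spores before or after treatment. Plants were held in a dew chamber, then a 20° C. greenhouse. Percent control was derived from disease severity relative to untreated plants.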

Leptosphaeria nodorum = test: Fungicidal activity: Wheat Glume Blotch (LEPTNO); details: 100 ppm, 1 DP (1 Day Protectant)
Procedure: Technical grades of materials were dissolved in acetone, which were then mixed with nine volumes of water containing 110 ppm Triton X-100. The fungicide solutions were applied onto wheat seedlings using an automated booth sprayer to run-off. All sprayed plants were allowed to air dry prior to further handling. All fungicides were evaluated using the aforementioned method for their activity vs. all target diseases, unless stated otherwise. Wheat leaf blotch and brown rust activity were also evaluated using track spray applications, in which case the fungicides were formulated as EC formulations, containing 0.1% Trycol 5941 in the spray solutions. Wheat plants (variety Yuma) were grown from seed in a greenhouse in 50% mineral soil/50% soil-less Metro mix until the first leaf was fully emerged, with 7-10 seedlings per pot. These plants were inoculated with an aqueous spore suspension of Septoria tritici either prior to or after fungicide treatments. After inoculation the plants were kept in 100% relative humidity (one day in a dark dew chamber followed by two to three days in a lighted dew chamber at 20° C.) to permit spores to germinate and infect the leaf. The plants were then transferred to a greenhouse set at 20° C. for disease to develop. When disease symptoms were fully expressed on the 1st leaves of untreated plants, infection levels were assessed on a scale of 0 to 100 percent disease severity. Percent disease control was calculated using the ratio of disease severity on treated plants relative to untreated plants. Evaluation of Fungicidal Activity: Wheat Glume Blotch (Leptosphaeria nodorum; Bayer Code […]) Wheat plants (variety Yuma) were grown from seed in a greenhouse in 50% mineral soil/50% soil-less Metro mix until the first leaf was fully emerged, with 7-10 seedlings per pot. These plants were inoculated with an aqueous spore suspension of Leptosphaeria nodorum 24 hr after fungicide treatments. After inoculation the plants were kept in 100% relative humidity (one day in a dark dew chamber followed by two days in a lighted dew chamber at 20° C.) to permit spores to germinate and infect the leaf. The plants were then transferred to a greenhouse set at 20° C. for disease to develop. Fungicide formulation, application and disease assessment followed the procedures as described in the Example A.

Puccinia triticina = test: Fungicidal activity: Wheat Brown Rust (PUCCRT); details: for pest or weed control at 100 µg/mL: High Volume (100 ppm); for pest or weed control at 121.5 g/ha: Low Volume (121.5 g/H)
Method in brief: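 Percent control of brown rust was derived from 0-100% severity on treated versus untreated first leaves. Yuma wheat seedlings were spray-treated to run-off (acetone/water, Triton X-100) and inoculated with P. triticina spores before or after treatment, then held overnight in dark dew at 22° C and moved to a 24° C greenhouse.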

Erysiphe cichoracearum = test: Fungicidal activity: Powdery Mildew of Cucumber (ERYSCI); details: 100 ppm, 1 DP (1 Day Protectant)
[2] = 24 h, 1 Day Protectant, read-out: SEPTTR 1 DP disease control
[3] = 72 h, 3 Day Curative, read-out: SEPTTR 3 DC disease control
[4] = 24 h, 1 Day Protectant, read-out: PUCCRT 1 DP disease control
[5] = 72 h, 3 Day Curative, read-out: PUCCRT 3 DC disease control

Structure (SMILES) | pest or weed control at 100 µg/mL [1, 2] | pest or weed control at 121.5 g/ha [1, 2] | pest or weed control at 100 µg/mL [1, 3] | pest or weed control at 121.5 g/ha [1, 3] | LEPTNO disease control rating (Leptosphaeria nodorum) | pest or weed control at 100 µg/mL (Puccinia triticina; [4]) | pest or weed control at 121.5 g/ha (Puccinia triticina; [4]) | pest or weed control at 100 µg/mL (Puccinia triticina; [5]) | pest or weed control at 121.5 g/ha (Puccinia triticina; [5]) | ERYSCI disease control rating (Erysiphe cichoracearum)
COc1ccnc(C(=O)N[C@H]2COC[C@H](Cc3ccccc3)[C@@H](Cc3ccccc3)[C@H](C)OC2=O)c1OCOC(C)=O [Cmpd. 3, ((2-(((3S,7R,8R,9S)-7,8-dibenzyl-9-methyl-2-oxo-1,5-dioxonan-3-yl)carbamoyl)-4-methoxypyridin-3-yl)oxy)methyl acetate] | > 70% | > 70% | > 70% | > 70% | A (>70) | > 70% | > 70% | < 70% | > 70% | 
CCCC[C@@H]1[C@@H](Cc2ccccc2)COC[C@H](NC(=O)c2nccc(OC)c2OCOC(=O)C(C)C)C(=O)O[C@H]1C [compound 1] | > 70% | > 70% | > 70% | > 70% | A (>70) | > 70% | > 70% | > 70% | < 70% | A (>70)
COc1ccnc(C(=O)N[C@H]2COC[C@H](c3ccccc3)[C@@H](c3ccccc3)[C@H](C)OC2=O)c1OCOC(C)=O [compound 7] | > 70% | > 70% | > 70% | > 70% |  | > 70% | > 70% | > 70% | > 70% | A (>70)
CCCC[C@@H]1[C@@H](Cc2ccc(C(F)(F)F)cc2)COC[C@H](NC(=O)c2nccc(OC)c2OCOC(C)=O)C(=O)O[C@H]1C [compound 16] |  | > 70% |  | > 70% | A (>70) |  | > 70% |  | > 70% | A (>70)
COc1ccnc(C(=O)N[C@H]2COC[C@H](Cc3ccccc3)[C@@H](Cc3ccccc3)[C@H](C)OC2=O)c1OC(C)=O [compound 27] |  | > 70% |  | > 70% | A (>70) |  | > 70% |  | > 70% | B (≤70)
COc1ccnc(C(=O)N[C@H]2COC[C@H](CC3CC3)[C@@H](c3ccccc3)[C@H](C)OC2=O)c1OC(C)=O [compound 100] |  | > 70% |  | > 70% | A (>70) |  | > 70% |  | > 70% | A (>70)
